Data on three compounds can be found in ChEMBL document CHEMBL1149385, “A selective estrogen receptor modulator for the treatment of hot flushes” (J Med Chem, 2006).

pKi: −log10 of the molar value. The source made the active and inactive calls. The rule behind the calls is not given here.

In test [1] the test system is Rattus norvegicus. The experiment in a line: Eosinophil peroxidase activity in ovariectomized orally dosed Sprague-Dawley rat. In kind it is functional, organism-based. The settings on record: filed as agonist.
Test [2] relates to Rattus norvegicus. Briefly: Ability to block ovariectomy-induced bone loss in orally dosed Sprague-Dawley rat. In kind it is functional, organism-based.
Test [3] concerns Rattus norvegicus. The experiment in a line: Ability to reduce serum cholesterol level in ovariectomized orally dosed Sprague-Dawley rat at 0.01 mg/kg. In kind it is functional. Set-up: scale not given: the % may be the effect or the level left. The following applies: route oral.
Test [4] deals with Rattus norvegicus. The experiment in a line: Efficacy against hot flush in morphine dependent ovariectomized orally dosed Sprague-Dawley rat model. In kind it is functional, organism-based.
The target of test [5] is T1, Estrogen receptor (Homo sapiens, UniProt P03372).
T1 sequence (P03372 whole entry): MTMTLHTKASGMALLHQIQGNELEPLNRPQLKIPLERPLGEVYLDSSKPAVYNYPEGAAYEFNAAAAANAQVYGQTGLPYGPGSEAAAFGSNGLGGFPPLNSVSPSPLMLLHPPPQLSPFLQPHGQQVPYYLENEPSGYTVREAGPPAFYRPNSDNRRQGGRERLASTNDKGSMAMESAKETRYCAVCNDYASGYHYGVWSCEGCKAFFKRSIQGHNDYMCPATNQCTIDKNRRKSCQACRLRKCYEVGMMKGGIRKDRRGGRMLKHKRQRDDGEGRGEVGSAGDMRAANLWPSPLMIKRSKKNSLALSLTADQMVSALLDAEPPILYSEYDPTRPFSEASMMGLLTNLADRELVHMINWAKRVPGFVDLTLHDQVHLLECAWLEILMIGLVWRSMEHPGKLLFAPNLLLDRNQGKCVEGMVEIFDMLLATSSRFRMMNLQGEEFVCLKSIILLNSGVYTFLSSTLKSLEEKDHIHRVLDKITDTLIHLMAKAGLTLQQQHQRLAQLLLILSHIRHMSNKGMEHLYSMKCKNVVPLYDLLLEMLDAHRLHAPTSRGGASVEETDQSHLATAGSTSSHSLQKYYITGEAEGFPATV
The experiment in a line: Displacement of [3H]17beta-estradiol from ERalpha. Background: In a radioligand displacement assay an active substance lowers the binding of a labelled ligand.

For test [6], the target named is Estrogen receptor beta (Homo sapiens, UniProt Q92731). The experiment in a line: Displacement of [3H]17beta-estradiol from ERbeta.
Estrogen receptor beta, sequence (Q92731 whole entry): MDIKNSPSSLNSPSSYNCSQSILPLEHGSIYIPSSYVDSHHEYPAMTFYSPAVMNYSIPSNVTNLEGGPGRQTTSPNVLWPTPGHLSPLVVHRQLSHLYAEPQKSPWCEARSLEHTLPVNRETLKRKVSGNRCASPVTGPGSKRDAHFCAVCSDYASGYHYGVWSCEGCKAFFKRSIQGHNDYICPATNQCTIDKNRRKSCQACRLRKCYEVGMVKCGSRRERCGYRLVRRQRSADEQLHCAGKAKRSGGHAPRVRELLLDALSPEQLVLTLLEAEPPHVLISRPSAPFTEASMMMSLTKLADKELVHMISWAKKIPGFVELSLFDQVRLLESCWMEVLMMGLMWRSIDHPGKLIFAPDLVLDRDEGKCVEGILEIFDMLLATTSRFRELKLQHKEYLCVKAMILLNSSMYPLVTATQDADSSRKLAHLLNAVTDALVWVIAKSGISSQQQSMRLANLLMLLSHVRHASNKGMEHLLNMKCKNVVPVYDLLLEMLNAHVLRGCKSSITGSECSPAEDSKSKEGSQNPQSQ
In test [7] the target is T2, Estrogen receptor (Homo sapiens, UniProt Q92731+P03372). Briefly: Antagonist effect on breast adenocarcinoma-derived MCF7 cell line. In kind it is functional, cell-based.
Test [8] addresses T2, Estrogen receptor. Briefly: Antagonist effect on Ishikawa uterine cancer cell line in presence of 17-beta-estradiol. In kind it is functional, cell-based.
In test [9] the test system is Rattus norvegicus. The experiment in a line: Inhibition of estrogen-induced effect on uterine weight in orally dosed Sprague-Dawley rat. In kind it is functional.

In general, pKi refers to the negative decadic logarithm of the Ki, by convention in mol/L. As usually defined, the IC50 is the concentration needed to halve the response being measured. One may read the ED50 as the dose at which the effect has come halfway, by size or by number of responders. Regarding `Cl.Oc1ccc2c3c(ccc2c1)-c1cc(F)cc(F)c1O[C@@H]3c1ccc(OCCN2CCCCC2)cc1`, the results for the Activity entry in test [1] and in [3] were “Antagonist” and 50%, respectively. In addition, the outcome in [2] was Active. Moreover, in test [4], the Efficacy result was “Dose-dependent effect”. The pKi in [5] was 9.52; in test [6], 9.30. Besides, the results for the 50% inhibitory concentration (IC50) in test [7] and in test [8] were 1.4 nM and 5.3 nM, respectively. In test [9] (po), this compound displayed an ED50 of 0.03 mg/kg.

With `Cl.Oc1ccc2c3c(ccc2c1)-c1cc(F)cc(F)c1O[C@H]3c1ccc(OCCN2CCCCC2)cc1`, the negative logarithm of the Ki (pKi) is 8.24 in [5] and 7.27 in [6]. Further, the IC50 amounted to 330 nM in test [7] and 430 nM in test [8]. In addition, in test [9], the ED50 entry is “inactive”.

As for `O=C(c1ccc(OCCN2CCCC2)cc1)c1c(-c2ccc(O)cc2)sc2cc(O)ccc12`, the Activity entry in [1] is “Antagonist”. Moreover, in test [2], the result was Active.
